Test results: ChEMBL document CHEMBL5543174, “A Nonbactericidal Anionic Antimicrobial Peptide Provides Prophylactic and Therapeutic Efficacies against Bacterial Infections in Mice by Immunomodulatory-Antithrombotic Duality” (J Med Chem, 2024)
Calls of active or inactive are those of the source.

Assays:
[1] = system: Mus musculus; assay: Anticoagulation activity in mouse assessed as change in plasma AT-III expression at 10 mg/kg,ip measured after 24 hrs by ELISA; assay type: functional, organism-based
[2] = system: Staphylococcus aureus; assay: Antibacterial activity against Staphylococcus aureus ATCC 25923 infected in C57BL/6 mouse assessed as reduction in IL-1beta level in serum at 10 mg/kg,ip pre-administrated 5 hrs before bacterial infection measured after 24 hrs by ELISA; assay type: functional, organism-based; conditions: time 29.0 hrs
[3] = system: Escherichia coli; assay: Antibacterial activity against Carbapenem-resistant Escherichia coli infected in C57BL/6 mouse assessed as reduction in TNF-alpha level in peritoneal fluid at 10 mg/kg,ip administrated 5 hrs after bacterial infection measured after 24 hrs by ELISA; assay type: functional, organism-based; conditions: time 19.0 hrs
[4] = system: Plasma; assay: Anticoagulation activity in human platelet poor plasma assessed as elongation of activated partial thromboplastin time at 100 ug/ml measured after 5 mins; assay type: functional, cell-free; conditions: dose 100.0 µg/ml
[5] = system: Escherichia coli; assay: Antimicrobial activity against Escherichia coli ATCC 25922 assessed as reduction in metabolic activity at < 200 ug/ml incubated for 1 to 4 hrs by CCK-8 assay; assay type: functional, organism-based; conditions: dose < 200.0 µg/ml, time 1-4 hrs
[6] = system: Peritoneal macrophage cell; assay: Induction of phagocytosis in mouse Peritoneal macrophage assessed as increase in neutral red dye uptake by measuring optical density absorbance at 100 ug/ml incubated for 24 hrs followed by dye addition measured after 4 hrs by absorbance based assay (reference value: 0.089); assay type: functional; conditions: dose 100 µg/ml; time 28 hrs
[7] = system: Neutrophil; assay: Induction of degranulation in mouse bone marrow derived neutrophil assessed as increase in BD-2 release at 25 to 100 ug/ml incubated for 6 hrs by ELISA; assay type: functional, cell-based; conditions: dose 25-100 µg/ml
[8] = system: Peritoneal macrophage cell; assay: Induction of phagocytosis in mouse Peritoneal macrophage assessed as increase in neutral red dye uptake by measuring optical density absorbance at 50 ug/ml incubated for 24 hrs followed by dye addition measured after 4 hrs by absorbance based assay (reference value: 0.089); assay type: functional; conditions: dose 50 µg/ml; time 28 hrs
[9] = system: Escherichia coli; assay: Antibacterial activity against Escherichia coli ATCC 25922 infected in C57BL/6 mouse assessed as reduction in TNF-alpha level in peritoneal fluid at 10 mg/kg,ip pre-administrated 5 hrs before bacterial infection measured after 24 hrs by ELISA; assay type: functional, organism-based; conditions: time 29.0 hrs
[10] = system: Escherichia coli; assay: Antibacterial activity against Carbapenem-resistant Escherichia coli infected in C57BL/6 mouse assessed as reduction in IL-1beta level in serum at 10 mg/kg,ip administrated 5 hrs after bacterial infection measured after 24 hrs by ELISA; assay type: functional, organism-based; conditions: time 19.0 hrs
[11] = system: Peritoneal macrophage; assay: Immunomodulatory activity in mouse Peritoneal macrophage assessed as decrease in LPS-induced TNF-alpha production at 25 to 100 ug/ml incubated for 6 hrs by ELISA; assay type: functional, cell-based; conditions: dose 25-100 µg/ml
[12] = system: Escherichia coli; assay: Antibacterial activity against Escherichia coli ATCC 25922 infected in C57BL/6 mouse assessed as reduction in inflammatory injury in lung at 10 mg/kg,ip administrated 5 hrs after bacterial infection measured after 24 hrs by hematoxylin and eosin staining based analysis; assay type: functional, organism-based; conditions: time 19.0 hrs
[13] = system: Peritoneal macrophage cell; assay: Induction of chemotaxis in mouse Peritoneal macrophage assessed as increase in macrophage migration at 100 ug/ml preincubated with KN62 for 30 mins followed by compound addition measured after 8 hrs by crystal violet staining based indirect transwell assay; assay type: functional, cell-based; conditions: dose 100.0 µg/ml
[14] = system: Escherichia coli; assay: Antibacterial activity against Carbapenem-resistant Escherichia coli infected in C57BL/6 mouse assessed as reduction in TNF-alpha level in peritoneal fluid at 10 mg/kg,ip pre-administrated 5 hrs before bacterial infection measured after 24 hrs by ELISA; assay type: functional, organism-based; conditions: time 29.0 hrs
[15] = system: Mus musculus; assay: Anticoagulation activity in mouse infected with Carbapenem-resistant Escherichia coli assessed as increase in plasma TFPI expression at 10 mg/kg,ip administrated 5 hrs after bacterial infection measured after 24 hrs by ELISA; assay type: functional, organism-based; conditions: time 19.0 hrs
[16] = system: Plasma; assay: Anticoagulation activity in human platelet poor plasma assessed as elongation of prothrombin time at 100 ug/ml measured after 5 mins; assay type: functional, cell-free; conditions: dose 100.0 µg/ml
[17] = system: Escherichia coli; assay: Antibacterial activity against Carbapenem-resistant Escherichia coli infected in C57BL/6 mouse assessed as reduction in IL-6 level in serum at 10 mg/kg,ip administrated 5 hrs after bacterial infection measured after 24 hrs by ELISA; assay type: functional, organism-based; conditions: time 19.0 hrs
[18] = system: Escherichia coli; assay: Antibacterial activity against Carbapenem-resistant Escherichia coli infected in C57BL/6 mouse with clodronate liposome-induced monocyte depletion model assessed as decrease in bacterial burden in peritoneal cavity at 10 mg/kg,ip pre-administrated 5 hrs before bacterial infection measured after 24 hrs; assay type: functional, organism-based; conditions: time 29.0 hrs
[19] = system: Escherichia coli; assay: Antibacterial activity against Carbapenem-resistant Escherichia coli infected in C57BL/6 mouse assessed as reduction in bacterial load at 10 mg/kg,ip administrated 5 hrs after bacterial infection; assay type: functional, organism-based
[20] = system: Staphylococcus aureus; assay: Antibacterial activity against Methicillin-resistant Staphylococcus aureus infected in C57BL/6 mouse assessed as reduction in IL-1beta level in peritoneal fluid at 10 mg/kg,ip pre-administrated 5 hrs before bacterial infection measured after 24 hrs by ELISA; assay type: functional, organism-based; conditions: time 29.0 hrs
[21] = system: Peritoneal macrophage; assay: Induction of chemotaxis in mouse Peritoneal macrophage assessed as increase in macrophage migration incubated for 8 hrs by crystal violet staining based indirect transwell assay; assay type: functional, cell-based
[22] = system: Staphylococcus aureus; assay: Antimicrobial activity against Staphylococcus aureus ATCC 25923 assessed as inhibition of microbial growth at <= 200 ug/ml incubated for 18 hrs by micro-broth dilution method; assay type: functional, organism-based; conditions: dose <= 200.0 µg/ml
[23] = system: Lymphocyte; assay: Immunomodulatory activity in mouse mesenteric lymph node derived lymphocyte assessed as increase in lymphocyte proliferation at < 200 ug/ml incubated for 24 hrs by CCK-8 assay; assay type: functional, cell-based; conditions: dose < 200.0 µg/ml
[24] = system: Neutrophil; assay: Induction of chemotaxis in mouse bone marrow derived neutrophil assessed as increase in neutrophil migration at 100 ug/ml preincubated with MTS510 for 30 mins followed by compound addition measured after 8 hrs by crystal violet staining based indirect transwell assay; assay type: functional, cell-based; conditions: dose 100.0 µg/ml
[25] = system: Staphylococcus aureus; assay: Antibacterial activity against Methicillin-resistant Staphylococcus aureus infected in C57BL/6 mouse assessed as reduction in IL-1beta level in serum at 10 mg/kg,ip pre-administrated 5 hrs before bacterial infection measured after 24 hrs by ELISA; assay type: functional, organism-based; conditions: time 29.0 hrs
[26] = system: Neutrophil; assay: Induction of phagocytosis in mouse bone marrow derived neutrophil cultured with CFSE-labeled Carbapenem-resistant Escherichia coli incubated for 1.5 hrs followed by bacterial exposure for 1 hr by flow cytometry; assay type: functional, cell-based; conditions: time 2.5 hrs
[27] = system: Mus musculus; assay: Anticoagulation activity in mouse infected with Carbapenem-resistant Escherichia coli assessed as increase in plasma AT-III expression at 10 mg/kg,ip administrated 5 hrs after bacterial infection measured after 24 hrs by ELISA; assay type: functional, organism-based; conditions: time 19.0 hrs
[28] = system: Staphylococcus aureus; assay: Antibacterial activity against Staphylococcus aureus ATCC 25923 infected in C57BL/6 mouse assessed as reduction in TNF-alpha level in peritoneal fluid at 10 mg/kg,ip administrated 5 hrs after bacterial infection measured after 24 hrs by ELISA; assay type: functional, organism-based; conditions: time 19.0 hrs
[29] = system: Escherichia coli; assay: Antibacterial activity against Escherichia coli ATCC 25922 infected in C57BL/6 mouse assessed as reduction in IL-1beta level in serum at 10 mg/kg,ip administrated 5 hrs after bacterial infection measured after 24 hrs by ELISA; assay type: functional, organism-based; conditions: time 19.0 hrs
[30] = system: Peritoneal macrophage; assay: Immunoregulatory activity in mouse Peritoneal macrophage assessed as change in total p38 expression at 25 to 100 ug/ml incubated for 1 hr by Western blotting analysis; assay type: functional, cell-based; conditions: dose 25-100 µg/ml

CC[C@H](C)[C@H](NC(=O)[C@@H]1CSSC[C@H](NC(=O)[C@H](CCC(=O)O)NC(=O)[C@@H](NC(=O)[C@H](CCCCN)NC(=O)[C@H](Cc2c[nH]cn2)NC(=O)[C@@H](NC(=O)[C@H](CCCCN)NC(=O)[C@H](CCC(=O)O)NC(=O)[C@H](C)NC(=O)[C@H](CCC(=O)O)NC(=O)[C@H](CCC(=O)O)NC(=O)[C@H](CCC(=O)O)NC(=O)[C@H](C)N)[C@@H](C)O)[C@@H](C)O)C(=O)N[C@@H](CC(C)C)C(=O)N[C@@H](CCC(=O)O)C(=O)N1)C(=O)N[C@@H](Cc1ccccc1)C(=O)N[C@H](C(=O)N[C@@H](CC(C)C)C(=O)N[C@@H](CC(C)C)C(=O)N1CCC[C@H]1C(=O)N1CCC[C@@H]1C(=O)N[C@H](C)C(=O)O)[C@@H](C)O
0.111: OD [6]
active: Activity [2] | Activity [3] | Activity [9] | Activity [10] | Activity [12] | Activity [13] | Activity [14] | Activity [15] | Activity [17] | Activity [19] | Activity [20] | Activity [21] Dose-Dependent Effect | Activity [24] | Activity [25] | Activity [26] Dose-Dependent Effect | Activity [27] | Activity [28] | Activity [29]
0.102: OD [8]
inactive: Activity [1] | Activity [4] | Activity [5] | Activity [7] | Activity [11] | Activity [16] | Activity [18] | Activity [22] | Activity [23] | Activity [30]
